# Reference: paper PMC11558998, “Lipophilic bisphosphonates reduced cyst burden and ameliorated hyperactivity of mice chronically infected with Toxoplasma gondii” (mBio, 2024)
# How the values were obtained:
# [1] = system: in vitro differentiated Me49 bradyzoites (cysts); assay: Vacuole size of in vitro differentiated Me49 cysts (DBA/SAG1 IFA); format: cell-based, Toxoplasma gondii; settings: 4 days, ambient CO2
# Experimental: (§1) Type II Me49 or Pru was differentiated using compound 1 as previously described ([50]). Confluent HFF monolayers on glass coverslips (preincubated for 2 hours with 3 µM compound 1, as described previously) were infected with 5 × 10^3 tachyzoites of the ME49 or Pru (type 2) or EGS (type I/III) strain (no compound 1 for EGS). The cells were allowed to grow and differentiate in a 37°C incubator with ambient CO2 for 3 days (EGS was allowed to spontaneously differentiate for 4 days). […] After 7 days (Me49) or 8 days (EGS) of incubation, the cells were fixed with 3% paraformaldehyde for 10 minutes, permeabilized with 0.25% Triton X-100 for 10 minutes, and then blocked in 3% bovine serum albumin for 1 hour. The coverslips were then incubated in DBA rhodamine (for Me49)([51]) or DBA lectin (a kind gift from Diego Huet for EGS) and anti-SAG1 rat antibody (a kind gift from Vern Carruthers) for 2 hours. Then, the secondary anti-rat 488 was used to visualize the SAG1 antibody. The cells were then mounted onto microscope slides with fluoromount and DAPI (4′,6-diamidino-2-phenylindole). The slides were placed in the fridge for a minimum of 24 hours before imaging on a Delta Vision microscope. The vacuole sizes were calculated using ImageJ software.
# [2] = system: ex vivo bradyzoites of the Pru strain from chronically infected mice; assay: Ex vivo bradyzoite viability assay, Pru; format: cell-based, Toxoplasma gondii; settings: 3x EC50
# Experimental: (§2) Brains of chronically infected mice were collected, homogenized with seven strokes in a glass homogenizer, and then enumerated on a Delta Vision microscope [protocol adapted from reference ([45])]. Twenty-five cysts per plate were then placed in a tube for acid/pepsin (170 mM sodium chloride, 60 mM hydrochloric acid, and 0.1 mg/mL pepsin) treatment for 10 minutes in a 37°C water bath. The cysts were then neutralized with 94 mM Na2CO3. The liberated bradyzoites were then equally distributed into a 12-well plate. For the growth assay, the cells were grown in the presence of compounds or DMSO for 12 and 14 days undisturbed. For the viability assays, the cells were treated with compounds or DMSO for 4 hours before being washed with 1× PBS and then grown for 12 and 14 days in media without compounds. After 12 and 14 days, the cells were fixed with 100% ethanol and stained with 2.5× crystal violet. The control DMSO plaque image is duplicated from Fig. 2B to be used as the representative image of plaques in Fig. 2A. Plaques were quantified on a light microscope using the 4× objective and the size of the plaques was measured using Fiji (ImageJ) software.
# [3] = system: in vitro derived Pru cysts; assay: Vacuole size of in vitro derived Pru cysts; format: cell-based, Toxoplasma gondii
# Experimental: as §1
# [4] = system: Pru-GFP brain tissue cysts in Balb/c mice; assay: Treatment of Balb/c mice chronically infected with Pru-GFP; settings: Balb/c mice, 1,500 Pru-GFP i.p., 1 mg/kg/day i.p. for 16 days from 28 dpi
# Experimental: BALB/c male mice (Jackson Laboratory) were injected i.p. with a 200 µL suspension of 1,500 tachyzoites of the Pru-GFP strain T. gondii (type II genotype) (a gift from Laura Knoll). […] At 4 weeks post-infection, the brains of two mice were collected to check for the presence of cysts and to confirm that the mice were in the chronic stage. At this time, the remaining mice were injected i.p. daily for 16 consecutive days with 200 µL solvent (10% Kolliphor HS-15) or compounds dissolved in 10% HS-15. […] Mice were euthanized humanely 2 weeks after the final injection. The mouse brains were collected in 1 mL sterile PBS, minced with scissors, and homogenized using a glass homogenizer. Four 20 µL samples (80 µL total or 8% of sample) of each brain homogenate were placed on a glass microscope slide. Cysts were enumerated using a Delta Vision fluorescence microscope.
# [5] = system: RH-RFP tachyzoites in Swiss Webster mice; settings: RH parasites; cited from earlier work
# [6] = system: type I/III EGS strain cysts; assay: Vacuole size of spontaneously formed EGS cysts; format: cell-based, Toxoplasma gondii; settings: EGS spontaneous cysts, 3x EC50, 4 days
# Experimental: as §1
# [7] = system: ex vivo bradyzoites of the Pru strain from chronically infected mice; assay: Ex vivo bradyzoite growth assay, Pru; format: cell-based, Toxoplasma gondii; settings: 3x EC50
# Experimental: as §2
# [8] = system: hyperactivity of Balb/c mice chronically infected with Pru-GFP; assay: CageDot continuous monitoring of mouse activity during chronic infection; settings: 1 mg/kg/day i.p. 16 days, 15 dpt and 2 wpt
# Experimental: At this time, the remaining mice were injected i.p. daily for 16 consecutive days with 200 µL solvent (10% Kolliphor HS-15) or compounds dissolved in 10% HS-15. […] Mice were euthanized humanely 2 weeks after the final injection.
# Mice were monitored during the infection using the CageDot ([30], [31]), which detects vibrations. […] Data are collected at a 100 Hz sampling rate (each second, 100 data points were collected).
# [9] = system: in vitro differentiated Me49 bradyzoites; assay: In vitro bradyzoite viability assay (plaques); format: cell-based, Toxoplasma gondii; settings: Me49 bradyzoites treated 4 days at 3x and 5x EC50, then plaques 14 or 16 days, vs DMSO
# Experimental: The protocol for in vitro viability assay was adapted from Zwicker et al. ([52]). Confluent HFF monolayers (preincubated for 2 hours with 3 µM compound 1) were infected with 5 × 10^3 tachyzoites of the ME49 (type 2) strain. After 24 hours, the compound 1 was removed to avoid toxicity to the host cells. The cells were allowed to grow and differentiate in a 37°C incubator with ambient CO2 for 3 days. […] After 7 days of differentiation, the cysts were collected by scraping the monolayers, syringe lysing the parasites, and treatment with acid/pepsin (170 mM sodium chloride, 60 mM hydrochloric acid, and 0.1 mg/mL pepsin) for 30 minutes in a 37°C water bath. The cysts were then neutralized with 94 mM sodium carbonate (Na2CO3) and enumerated. Ten thousand bradyzoites were plated per well in a six-well plate and allowed to grow undisturbed in a 37°C incubator with 5% CO2 for 14 or 16 days. At this time, cultures were fixed with 100% ethanol and stained with 2.5× crystal violet. The control DMSO plaque image is duplicated from Fig. 1E to be used as the representative image of plaques in Fig. 1D. Plaques were quantified using a light microscope using the 4× objective.
# [10] = system: ex vivo bradyzoites of Me49-RFP from brains of chronically infected mice; assay: Ex vivo bradyzoite viability assay, Me49-RFP; format: cell-based, Toxoplasma gondii; settings: inhibitors 4 hours then drug-free 14 days, 3x EC50
# Experimental: as §2
# [11] = system: Me49-RFP brain tissue cysts in Swiss Webster mice; assay: Treatment of Swiss Webster mice chronically infected with Me49-RFP; format: in vivo, Toxoplasma gondii; settings: Swiss Webster mice, 5,000 Me49-RFP i.p., BPH-1218 at 1 mg/kg daily for 16 days
# [12] = system: RH-RFP tachyzoites in Swiss Webster mice; assay: Mice infected with a lethal dose of T. gondii (acute infection); format: in vivo, Toxoplasma gondii; settings: 100 RH-RFP tachyzoites i.p., daily i.p. treatment for 10 days starting 6 hours after infection
# Experimental: Experiments were carried out as described previously ([16]) using 100 T. gondii tachyzoites of the RH td-Tomato strain (RH-RFP) to infect female Swiss Webster mice. Drugs were dissolved in 10% Kolliphor HS-15 and were inoculated i.p. starting 6 hours after infection and administered for 10 days. The survival of mice was monitored along with their weight. Mice were sacrificed if they lost over 20% of their body weight. Surviving mice were challenged on day 30 post-infection with 10,000 RH-RFP tachyzoites. Blood was collected at 30 dpi (before challenge) and at the time of euthanasia (3 weeks post challenge) to analyze the presence of T. gondii antibodies. To test for antibodies, we ran a western blot with RH-RFP lysate protein and probed the membrane with the serum collected from the mice. Protein extraction and western blot conditions were as done previously ([20]). After blocking with 5% milk in PBS-T (0.1% Tween 20 in phosphate buffered saline [PBS]), we washed the membrane three times for 5 minutes with PBS-T and attached it to the BioRad multiscreen tool. The RH-RFP lysate was ran throughout the whole gel to allow for testing of different serum (antibodies) on the same membrane. […]
# T. gondii = system: T. gondii; set-up: method as in PMID 17069459; settings: cited from earlier work
SMILES,vacuole size ([1]; 3x EC50 against tachyzoites),vacuole size ([1]; 5x EC50 against tachyzoites),"number of plaques, ex vivo viability [2]",vacuole size [3],reduction of cyst burden [4] [%],protection against lethal acute infection [5],size of the vacuoles (cysts) [6],"number of plaques, ex vivo growth [7]","activity of infected mice (nightly average energy, CageDot) [8]",number of plaques (bradyzoite viability) [9],"number of plaques, ex vivo viability [10]",reduction of cyst burden [11] [%],protection against lethal acute infection (survival) [12],induction of bradyzoite-specific antigen 1 (T. gondii),replication of T. gondii (T. gondii)
CCCCCCCCCCn1cc[n+](CC(P(=O)([O-])O)P(=O)(O)O)c1 (stereo not drawn) [BPH-1218],showed the same effect on vacuole size,diminished vacuole size,significant reduction in the number of plaques,decreased the vacuole size,74.0,protected mice against a lethal acute infection,reduced the size of the vacuoles,significant reduction in the number of plaques,decreased the activity of the infected mice to similar levels of the control uninfected mice,plaque number was significantly reduced,reduced the viability of ex vivo bradyzoites,73.6,,,
CCCCCCCCCCCn1cc[n+](CC(O)(P(=O)([O-])O)P(=O)(O)O)c1 (stereo not drawn) [BPH-1236],,diminished vacuole size,significant reduction in the number of plaques,,,,reduced the size of the vacuoles,significant reduction in the number of plaques,,plaque number was significantly reduced,reduced the viability of ex vivo bradyzoites,,protected mice against the acute infection,,
CCCCCCCCCn1cc[n+](CC(O)(P(=O)([O-])O)P(=O)(O)O)c1 (stereo not drawn) [BPH-1238],,diminished vacuole size,significant reduction in the number of plaques,,,,reduced the size of the vacuoles,significant reduction in the number of plaques,,plaque number was significantly reduced,reduced the viability of ex vivo bradyzoites,,,,
"CN1CCC(c2cc(-c3ccncc3)c(-c3ccc(F)cc3)[nH]2)CC1 [Compound 1, 4-[2-(4-fluorophenyl)-5-(1-methylpiperidine-4-yl)-1H-pyrrol-3-yl]pyridine]",,,,,,,,,,,,,,potent inducer of bradyzoite-specific antigen 1,dramatically slow the replication
